Experimental data published in patent publication US10259810B2, “N-sulfonylated pyrazolo[3,4-b]pyridin-6-carboxamides and method of use” (AbbVie S.à.r.l., priority 2015, dated 2019).

Legend:
ΔF508-CFTR [1] = molecular target: T1, ΔF508-CFTR (Homo sapiens, UniProt P13569, DEL508-508); experiment: CFTR cell surface levels using HRP-tagged ΔF508-CFTR expressing CFBE cells, in the presence of a co-corrector; assay type: cell-based; conditions: HRP-tagged ΔF508-CFTR CFBE cells, in the presence of 3 μM co-corrector; for EC50: read-out: EC50
T1 construct: host or cells: CFBE41o-, doxycycline-inducible
T1 sequence (P13569 with tags, fused parts or gaps DEL508-508): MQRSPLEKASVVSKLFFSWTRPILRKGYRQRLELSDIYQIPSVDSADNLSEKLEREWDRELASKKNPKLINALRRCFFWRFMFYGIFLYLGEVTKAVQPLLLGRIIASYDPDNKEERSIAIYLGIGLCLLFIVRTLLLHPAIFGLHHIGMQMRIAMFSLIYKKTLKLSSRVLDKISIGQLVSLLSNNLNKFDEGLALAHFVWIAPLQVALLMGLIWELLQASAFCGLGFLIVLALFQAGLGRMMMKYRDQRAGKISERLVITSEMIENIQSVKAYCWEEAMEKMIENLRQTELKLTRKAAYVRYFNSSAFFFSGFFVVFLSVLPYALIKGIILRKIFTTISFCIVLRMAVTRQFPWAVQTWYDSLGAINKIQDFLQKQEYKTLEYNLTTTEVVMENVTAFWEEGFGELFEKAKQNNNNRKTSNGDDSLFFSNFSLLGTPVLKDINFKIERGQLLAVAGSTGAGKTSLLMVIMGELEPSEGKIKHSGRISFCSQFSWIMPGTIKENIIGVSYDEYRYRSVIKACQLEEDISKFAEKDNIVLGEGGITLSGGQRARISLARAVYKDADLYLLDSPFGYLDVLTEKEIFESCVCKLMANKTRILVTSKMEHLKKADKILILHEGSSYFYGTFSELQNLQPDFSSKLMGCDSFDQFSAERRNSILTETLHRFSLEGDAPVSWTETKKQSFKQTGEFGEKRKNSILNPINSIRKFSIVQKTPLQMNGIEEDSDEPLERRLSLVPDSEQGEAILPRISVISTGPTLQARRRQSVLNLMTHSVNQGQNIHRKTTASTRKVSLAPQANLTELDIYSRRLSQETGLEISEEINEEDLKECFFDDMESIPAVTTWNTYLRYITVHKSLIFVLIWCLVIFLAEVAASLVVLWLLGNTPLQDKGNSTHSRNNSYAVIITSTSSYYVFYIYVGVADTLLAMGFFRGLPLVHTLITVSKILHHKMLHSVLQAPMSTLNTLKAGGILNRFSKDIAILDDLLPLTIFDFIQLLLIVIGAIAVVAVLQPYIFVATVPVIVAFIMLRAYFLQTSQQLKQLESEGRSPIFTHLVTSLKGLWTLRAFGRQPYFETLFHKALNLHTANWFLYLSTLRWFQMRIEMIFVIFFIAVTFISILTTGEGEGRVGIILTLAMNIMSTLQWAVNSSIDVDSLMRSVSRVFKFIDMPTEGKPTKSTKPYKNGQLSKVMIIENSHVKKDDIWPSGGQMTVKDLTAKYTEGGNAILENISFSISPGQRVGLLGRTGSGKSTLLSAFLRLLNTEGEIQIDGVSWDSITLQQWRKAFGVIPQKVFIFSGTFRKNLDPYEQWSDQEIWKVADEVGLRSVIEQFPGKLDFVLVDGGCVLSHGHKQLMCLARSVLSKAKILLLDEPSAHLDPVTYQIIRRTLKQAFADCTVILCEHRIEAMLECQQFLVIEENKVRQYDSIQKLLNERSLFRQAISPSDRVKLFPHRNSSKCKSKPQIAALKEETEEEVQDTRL
Method in brief: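 Chemiluminescent read-out of surface HRP (15 min, dark) after PBS washes. Activity is normalized as 100×(sample−DMSO)/(3 μM co-corrector alone−DMSO).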

ΔF508-CFTR [2] = molecular target: T1, ΔF508-CFTR; experiment: CFTR cell surface levels using HRP-tagged ΔF508-CFTR expressing CFBE cells, intrinsic corrector capacity; assay type: cell-based; parameters: % Activation: concentration or dose not given beside the values; conditions: HRP-tagged ΔF508-CFTR expressing CFBE41o- cells, compound alone (intrinsic corrector capacity), 20 hours at 33° C.; for EC50: read-out: EC50
Method in brief: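 Surface ΔF508-CFTR was measured as HRP chemiluminescence from an extracellular-loop-4 tag, expressed as percent activity between DMSO and a […] corrector control.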

## CN(C)S(=O)(=O)NC(=O)c1cc(N2CCC(N3CCN(C4COC4)CC3)CC2)c2c(C3CCC3)nn(-c3ccc(F)cc3)c2n1 [Compound 615, 3-cyclobutyl-N-(dimethylsulfamoyl)-1-(4-fluorophenyl)-4-{4-[4-(oxetan-3-yl)piperazin-1-yl]piperidin-1-yl}-1H-pyrazolo[3,4-b]pyridine-6-carboxamide]
ΔF508-CFTR [1]
  % Activation: 450.85%
  EC50: 0.13 µM
ΔF508-CFTR [2]
  % Activation: 255.3%
  EC50: 0.482 µM

## O=C(NS(=O)(=O)C1CCOC1)c1cc(N2CCC(N3CCCCC3)CC2)c2c(C3CCC3)nn(-c3ccc(F)cc3)c2n1 (stereo not shown) [Compound 451, 4-([1,4'-bipiperidin]-1'-yl)-3-cyclobutyl-1-(4-fluorophenyl)-N-(oxolane-3-sulfonyl)-1H-pyrazolo[3,4-b]pyridine-6-carboxamide]
ΔF508-CFTR [1]
  % Activation: 391%
  EC50: 2.1 µM
ΔF508-CFTR [2]
  % Activation: 184.1%
  EC50: 1.7 µM

## CCS(=O)(=O)NC(=O)c1cc(-c2ccc(N3CCOCC3)cc2)c2c(C)nn(-c3ccc(F)c(F)c3)c2n1 [Compound 116, 1-(3,4-difluorophenyl)-N-(ethanesulfonyl)-3-methyl-4-[4-(morpholin-4-yl)phenyl]-1H-pyrazolo[3,4-b]pyridine-6-carboxamide]
ΔF508-CFTR [1]
  % Activation: 438.37%
  EC50: 0.631 µM
ΔF508-CFTR [2]
  % Activation: 295.57%
  EC50: 0.957 µM

## COc1cccc(-n2nc(C)c3c(-c4ccc(N5CCOCC5)cc4)cc(C(=O)NS(C)(=O)=O)nc32)c1 [Compound 72, N-(methanesulfonyl)-1-(3-methoxyphenyl)-3-methyl-4-[4-(morpholin-4-yl)phenyl]-1H-pyrazolo[3,4-b]pyridine-6-carboxamide]
ΔF508-CFTR [1]
  % Activation: 400.9%
  EC50: 5.61 µM
ΔF508-CFTR [2]
  % Activation: 232.5%
  EC50: 2.23 µM

## CC(C)c1nn(-c2cccc(N(C)C)c2)c2nc(C(=O)NS(C)(=O)=O)cc(-c3ccc(N4CCC(C#N)CC4)nc3)c12 [Compound 83, 4-[6-(4-cyanopiperidin-1-yl)pyridin-3-yl]-1-[3-(dimethylamino)phenyl]-N-(methanesulfonyl)-3-(propan-2-yl)-1H-pyrazolo[3,4-b]pyridine-6-carboxamide]
ΔF508-CFTR [1]
  % Activation: 567.7%
  EC50: 0.425 µM
ΔF508-CFTR [2]
  % Activation: 391.5%
  EC50: 0.547 µM

## COCC1CCN(c2cc(C(=O)NS(=O)(=O)N(C)C)nc3c2c(C2CCC2)nn3-c2ccnc(C3CCOCC3)c2)CC1 [Compound 531, 3-cyclobutyl-N-(dimethylsulfamoyl)-4-[4-(methoxymethyl)piperidin-1-yl]-1-[2-(oxan-4-yl)pyridin-4-yl]-1H-pyrazolo[3,4-b]pyridine-6-carboxamide]
ΔF508-CFTR [1]
  % Activation: 349.65%
  EC50: 0.0635 µM
ΔF508-CFTR [2]
  % Activation: 182.8%
  EC50: 0.234 µM

## COCCS(=O)(=O)NC(=O)c1cc(-c2ccc(OC)cc2)c2c(C)nn(C(C)C)c2n1 [Compound 234, N-(2-methoxyethanesulfonyl)-4-(4-methoxyphenyl)-3-methyl-1-(propan-2-yl)-1H-pyrazolo[3,4-b]pyridine-6-carboxamide]
ΔF508-CFTR [1]
  % Activation: 128.3%
  EC50: > 10 µM
ΔF508-CFTR [2]
  % Activation: 17.89%
  EC50: > 10 µM

## CC(C)c1nn(-c2cccc(N(C)C)c2)c2nc(C(=O)NS(C)(=O)=O)cc(-c3ccc(N4CCC(C#N)CC4)cc3)c12 [Compound 81, 4-[4-(4-cyanopiperidin-1-yl)phenyl]-1-[3-(dimethylamino)phenyl]-N-(methanesulfonyl)-3-(propan-2-yl)-1H-pyrazolo[3,4-b]pyridine-6-carboxamide]
ΔF508-CFTR [1]
  % Activation: 646.44%
  EC50: 0.253 µM
ΔF508-CFTR [2]
  % Activation: 495.8%
  EC50: 0.385 µM

## CC(C)c1nn(-c2cccc(N(C)C)c2)c2nc(C(=O)NS(C)(=O)=O)cc(-c3ccc(N(C)C4CCOCC4)nc3)c12 [Compound 89, 1-[3-(dimethylamino)phenyl]-N-(methanesulfonyl)-4-{6-[methyl(oxan-4-yl)amino]pyridin-3-yl}-3-(propan-2-yl)-1H-pyrazolo[3,4-b]pyridine-6-carboxamide]
ΔF508-CFTR [1]
  % Activation: 609.48%
  EC50: 0.396 µM
ΔF508-CFTR [2]
  % Activation: 422.78%
  EC50: 0.646 µM

## CN(C)S(=O)(=O)NC(=O)c1cc(N2CCC(N3CCCC(F)C3)CC2)c2c(C3CCC3)nn(-c3ccc(F)cc3)c2n1 (stereo not shown) [Compound 563, 3-cyclobutyl-N-(dimethylsulfamoyl)-4-(3-fluoro[1,4'-bipiperidin]-1'-yl)-1-(4-fluorophenyl)-1H-pyrazolo[3,4-b]pyridine-6-carboxamide]
ΔF508-CFTR [1]
  % Activation: 542.9%
  EC50: 0.111 µM
ΔF508-CFTR [2]
  % Activation: 298.9%
  EC50: 0.198 µM

## CS(=O)(=O)NC(=O)c1cc(-c2ccc(N3CCC(C#N)CC3)nc2)c2c(OC3CCNCC3)nn(-c3ccccc3)c2n1 [Compound 258, 4-[6-(4-cyanopiperidin-1-yl)pyridin-3-yl]-N-(methanesulfonyl)-1-phenyl-3-[(piperidin-4-yl)oxy]-1H-pyrazolo[3,4-b]pyridine-6-carboxamide]
ΔF508-CFTR [1]
  % Activation: 127.1%
  EC50: > 10 µM
ΔF508-CFTR [2]
  % Activation: 8.829%
  EC50: > 10 µM

## COCC1CCN(c2cc(C(=O)NS(=O)(=O)CCN3C(=O)c4ccccc4C3=O)nc3c2c(C2CCC2)nn3-c2ccccc2)CC1 [Compound 260, 3-cyclobutyl-N-[2-(1,3-dioxoisoindolin-2-yl)ethylsulfonyl]-4-[4-(methoxymethyl)-1-piperidyl]-1-phenyl-pyrazolo[3,4-b]pyridine-6-carboxamide]
ΔF508-CFTR [1]
  % Activation: 664.07%
  EC50: 0.13 µM
ΔF508-CFTR [2]
  % Activation: 473.35%
  EC50: 1.87 µM

## COCC1CCN(c2cc(C(=O)NS(=O)(=O)CCNC(=O)OCc3ccccc3)nc3c2c(C2CCC2)nn3-c2ccccc2)CC1 [Compound 373, benzyl [2-({3-cyclobutyl-4-[4-(methoxymethyl)piperidin-1-yl]-1-phenyl-1H-pyrazolo[3,4-b]pyridine-6-carbonyl}sulfamoyl)ethyl]carbamate]
ΔF508-CFTR [1]
  % Activation: 580.5%
  EC50: 0.0858 µM
ΔF508-CFTR [2]
  % Activation: 368.2%
  EC50: 0.073 µM

## COCC1CCN(c2cc(C(=O)NS(=O)(=O)c3c(C)noc3C)nc3c2c(C2CCC2)nn3-c2ccccc2)CC1 [Compound 287, 3-cyclobutyl-N-(3,5-dimethyl-1,2-oxazole-4-sulfonyl)-4-[4-(methoxymethyl)piperidin-1-yl]-1-phenyl-1H-pyrazolo[3,4-b]pyridine-6-carboxamide]
ΔF508-CFTR [1]
  % Activation: 450.9%
  EC50: 0.128 µM
ΔF508-CFTR [2]
  % Activation: 204.9%
  EC50: 0.183 µM

## CC(C)N1CCN(C2CCN(c3cc(C(=O)NS(=O)(=O)N(C)C)nc4c3c(C3CCC3)nn4C3CCCCC3)CC2)CC1 [Compound 553, 3-cyclobutyl-1-cyclohexyl-N-(dimethylsulfamoyl)-4-{4-[4-(propan-2-yl)piperazin-1-yl]piperidin-1-yl}-1H-pyrazolo[3,4-b]pyridine-6-carboxamide]
ΔF508-CFTR [1]
  % Activation: 494.3%
  EC50: 0.233 µM
ΔF508-CFTR [2]
  % Activation: 293%
  EC50: 1.73 µM

## CN(C)S(=O)(=O)NC(=O)c1cc(OCC2CCN(C3CC3)CC2)c2c(C3CCC3)nn(-c3ccc(F)cc3)c2n1 [Compound 616, 3-cyclobutyl-4-[(1-cyclopropylpiperidin-4-yl)methoxy]-N-(dimethylsulfamoyl)-1-(4-fluorophenyl)-1H-pyrazolo[3,4-b]pyridine-6-carboxamide]
ΔF508-CFTR [1]
  % Activation: 341.15%
  EC50: 0.294 µM
ΔF508-CFTR [2]
  % Activation: 144.05%
  EC50: 0.348 µM
